Measurements from US11390661B2, “HCMV entry inhibitors” (priority 2016, dated 2022).
Ends that are not written are not given here.

B1: PDGFR-beta-Fc: recombinant Fc-fusion protein obtained from R&D (385-PR-100), comparison chimera (protein)
chain: LVVTPPGPELVLNVSSTFVLTCSGSAPVVWERMSQEPPQEMAKAQDGTFSSVLTLTNLTGLDTGEYFCTHNDSRGLETDERKRLYIFVPDPTVGFLPNDAEELFIFLTEITEITIPCRVTDPQLVVTLHEKKGDVALPVPYDHQRGFSGIFEDRSYICKTTIGDREVDSDAYYVYRLQVSSINVSVNAVQTVVRQGENITLMCIVIGNEVVNFEWTYPRKESGRLVEPVTDFLLDMPYHIRSILHIPSAELEDSGTYTCNVTESVNDHQDEKAINITVVESGYVRLLGEVGTLQFAELHRSRTLQVVFEAYPPPTVLWFKDNRTLGDSSAGEIALSTRNVSETRYVSELTLVRVKVAEAGHYTMRAFHEDAEVQLSFQLQINVPVRVLELSESHPDSGEQTVRCRGRGMPQPNIIWSACRDLKRCPRELPPTLLGNSSEEESQLETNVTYWEEEQEFEVVSTLRLQHVDRPLSVRCTLRNAVGQDTQEVIVVPHSLPF
modifications: left off: a dimerising Fc or GST
notes: recombinant Fc-fusion protein obtained from R&D (385-PR-100), comparison chimera

Key:
[1] = tested on: HCMV strain TB40/E; format: cell-based, Human cytomegalovirus; conditions: HFFs
Procedure: For screening the PDGFRα peptides for their neutralizing capacity a recently developed Gaussia-Luciferase-Assay was utilized (10). The Gaussia luciferase is secreted into the cell culture supernatants, therefore it is not necessary to fix the cells and instead a sample of the Gaussia containing supernatant is taken and mixed with the substrate coelenterazine (PjK) at a final concentration of 0.2 μg/ml. The resulting light emission was detected at 495 nm. For all obtained values background signals were subtracted and neutralization efficiency was determined relative to the control samples which contained only virus, no peptide.
Cell free preparations of strain TB40/E were pre-incubated with the individual peptides at concentrations reaching from 0.05-50 nmol/ml for 2 h and the mixtures were then incubated with HFF cultures in a 96-well format. The various peptides differed greatly regarding their inhibitory potential with a region between aa120 and aa280 being absolutely ineffective and the peptides surrounding this region having the highest anti-HCMV effect (FIG. 9).

[2] = tested on: HCMV strain TB40/E; assay: Inhibition of infection of fibroblasts (HFFs), IE antigen immunofluorescence; format: cell-based, Human cytomegalovirus; conditions: increasing concentrations, pre-incubated 2 h
Procedure: For testing the inhibitory effect of antivirals or fusion proteins on HCMV, the respective inhibitors were diluted in MEM and mixed with infectious supernatants, the mixtures were incubated for 2 h at 37° C. before addition to the cells. For fibroblast infection the virus-inhibitor mixture was incubated on the cells for about 24 h. If endothelial cells were included in the experiment, all cells were supplied with their respective maintenance media after 2 h, and further incubated for 22 h.
Infection efficiencies were determined by immunofluorescence staining for viral proteins. For fixation and permeabilization the cells were incubated with 80% acetone for 5 min. For HCMV infected cells the immediate early proteins pUL122/123 were detected with a mouse monoclonal (clone E13, Argene) and visualized using a Cy3 conjugated goat anti-mouse secondary antibody (Jackson Immuno Research). HSV infected cultures were stained 6 h post infection for ICP0 using a mouse monoclonal (clone 11060, Santa Cruz) and goat anti-mouse AF488 (life technologies). DAPI was used to locate nuclei. Infection rates were determined by counting the number of cell nuclei positive for the respective viral protein, as well as the total number of nuclei per image. For each condition three images were evaluated.
To test this, the inventors pre-incubated cell free preparations of HCMV strain TB40/E with variable concentrations of soluble PDGFR-alpha-Fc chimeras for 2 h before adding them to HFFs and HECs. After 2 h the virus was removed and replaced with the appropriate cell culture medium for an overnight incubation. Cultures were then fixed, and the fraction of infected cells was determined by indirect immunofluorescence staining of viral IE antigens.
Cell free preparations of TB40/E were pre-incubated with increasing concentrations of the various Fc chimeras for 2 h. HFFs were then incubated with the mixtures for 2 h followed by a medium exchange and an overnight incubation.

[3] = tested on: HCMV particles; assay: Binding of chimeric receptors (Fc-fusion proteins) to HCMV particles; parameters: species or system Human cytomegalovirus; conditions: particles pre-incubated with Fc-fusion protein, attached to cells on ice
Procedure: To assess the binding of Fc-Proteins to virus particles, HFFs were seeded at a density of 40,000 cells per well on IBIDI plates 1 day prior to infection. Virus preparations were pre-incubated with Fc-fusion proteins at a final concentration of 500 ng/ml for 2 h at 37° C. The virus/Fc-protein mixtures were incubated with the cells for 1.5 h on ice. Before fixation with 80% acetone, the cells were washed once with MEM. For staining of viral particles mouse hybridoma recognizing the abundant viral protein pp150 (generously provided by W. Britt, Sanchez 2000) used.
The inventors tested this by staining of adsorbed virus particles with the Fc-fusion proteins. […] Virus particles were stained for the capsid protein pp150 and bound Fc-fusion proteins.
The inventors analyzed the mode of inhibition by PDGFR-alpha-Fc. For this, the binding of different concentrations of the fusion protein was quantified by assessing the particle intensities after staining with anti-human antibody (FIG. 5). […] (FIGS. 4 and 5).

| Molecule | inhibition at 10 nmol/ml ([1]; 10 nmol/ml) | EC50 ([1]; pre-incubated 2 h, read-out: EC50 of inhibition of HCMV infection by peptide) | inhibitory potential of Fc chimeras on HCMV infection of HFFs [2] | binding of Fc-fusion protein to virus particles (anti-human antibody staining) [3] |
| --- | --- | --- | --- | --- |
| GRHIYIYVPDPDVAFVPLGMTDYLVIVEDDDSAIIPCRTT [peptide between aa90 and aa130] | almost complete inhibition | 2000 nM |  |  |
| B1 |  |  | neither PDGFR-beta-Fc nor EGFR-Fc had an effect | visualized only those particles that were pre-treated with PDGFR-alpha-Fc |
